According to PMC7966503, “Deciphering the Pharmacological Mechanisms of Guizhi-Fuling Capsule on Primary Dysmenorrhea Through Network Pharmacology” (Frontiers in Pharmacology, 2021):
Where “and” joins values, the source holds several entries; their conditions need not be identical. Identical values can stand only once. Like-named read-outs stand apart in the source and are kept apart here.

Columns and labels:
[1] = molecular target: T1, recombinant human COX2 (Homo sapiens, UniProt P35354); experiment: COX2 activity assay (cyclooxygenase-2 inhibitor screening kit, fluorescence); type: biochemical; details: duplicated samples
T1 construct: purchased Beyotime #S0168
T1 sequence (P35354 18-604): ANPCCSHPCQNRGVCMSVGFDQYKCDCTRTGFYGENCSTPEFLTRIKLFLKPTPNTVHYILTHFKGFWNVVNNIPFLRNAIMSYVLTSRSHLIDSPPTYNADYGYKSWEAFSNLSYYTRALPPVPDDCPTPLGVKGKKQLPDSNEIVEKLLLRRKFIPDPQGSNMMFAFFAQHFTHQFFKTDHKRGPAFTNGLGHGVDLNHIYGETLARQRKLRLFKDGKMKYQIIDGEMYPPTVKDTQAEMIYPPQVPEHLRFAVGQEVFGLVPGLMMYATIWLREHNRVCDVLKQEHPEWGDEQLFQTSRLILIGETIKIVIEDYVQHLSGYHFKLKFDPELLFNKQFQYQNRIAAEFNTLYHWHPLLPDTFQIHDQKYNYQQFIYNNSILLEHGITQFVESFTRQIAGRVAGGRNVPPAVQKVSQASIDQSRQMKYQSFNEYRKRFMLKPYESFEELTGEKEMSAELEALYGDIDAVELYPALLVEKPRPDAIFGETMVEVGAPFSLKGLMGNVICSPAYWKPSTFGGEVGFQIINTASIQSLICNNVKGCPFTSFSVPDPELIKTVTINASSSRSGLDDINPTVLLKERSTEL
Text: And then we selected predicted compounds and a specific target for preliminary analysis of their dosages and ratios as a starting point. In vitro enzyme activity assays were used to analyze the relationship between predicted GZFLC compounds’ different dosages and their intervention intensity on a specific target COX2, and to investigate GZFLC’s intervention intensity on COX2 under the specific ratio of GZFLC compounds which is relatively fixed in GZFLC. The content in the GZFLC (Jiangsu Kanion Pharmaceutical Co., Ltd. Jiangsu, China, No. 170601) was weighed and extracted with dimethyl sulfoxide (DMSO, 32.308:1, W/V, mg/ml) at 37°C for 30 min. The liquid was collected by centrifugation, and the supernatant was filtered through a 0.22 μ filter. The effect of GZFLC or pure chemicals including 1,2,3,4,6-penta-O-galloyl-beta-D-glucopyranose (purity (%) ≥98%, CAS: 14,937–32–7, Pubchem CID: 65238, Nanjing SenBeiJia Biological Technology Co., Ltd.), galloylpaeoniflorin (purity (%) ≥98%, CAS: 122,965–41–7, Pubchem CID: 46882879, Nanjing SenBeiJia Biological Technology Co., Ltd.), ethyl gallate (purity (%)≥98%, CAS: 831–61–8, Pubchem CID: 13250, Nanjing SenBeiJia Biological Technology Co., Ltd.) and gallic acid (purity (%)≥98%, CAS: 149–91–7, Pubchem CID: 370, Nanjing SenBeiJia Biological Technology Co., Ltd.) on COX2 activity was measured using cyclooxygenase-2 inhibitor screening kit (Beyotime, Cat. No. #S0168). Briefly, the recombinant human COX2 assay mixture (total volume = 90μL/well) consisting of assay buffer, cofactor, COX2 enzyme, and test compound (diluted in DMSO, 5.56% DMSO finally in assay) was incubated at 25°C for 5 min. Detection of the product was performed by adding probe (5μL/well). Arachidonic acid was added and the reaction was allowed to proceed for 15 min at 37°C. The fluorescence of the resulting solution was measured using SpectraMax M2e multilabel plate reader (Molecular Devices, United Kingdom). […] Data was represented as X¯±SD of duplicated samples. The effect of the samples on COX2 was calculated using the following equation: Relative activity of COX2(%)=(RFUsample−RFUBW/RFUA−RFUBW)×100%.

[2] = system: oxytocin-induced dysmenorrhea murine model; experiment: Uterine histopathology (H&E) in oxytocin-induced dysmenorrhea murine model; type: in vivo, ICR mice; details: ibuprofen 0.1 g/kg; GZFLC 0.54 and 1.08 g/kg oral, seven days
Protocol: Oxytocin-induced dysmenorrhea in mice was performed according to the method previously reported ([Sun et al., 2002]). […] Except for the normal group (subcutaneous injection of saline), the other groups were administrated by subcutaneous estradiol benzoate injection (0.05 ml/mouse on the first and 10th day, and 0.025 ml/mouse on the remaining days) for ten consecutive days. […] On the 10th day, oxytocin (0.2 ml/2 IU/mouse) was administered by peritoneal injection 1 h after the last administration. The number of animal writhing times was observed and recorded within 30 min after injection of oxytocin. […] The mice were sacrificed immediately. The uterus tissues were fixed with 10% formalin for further study. The uterus tissues were fixed in 10% formalin and stained with hematoxylin and eosin (H&E). […] According to the severity of the lesion, it was recorded as one point (mild), two points (moderate), three points (severe), four points (extremely severe), no lesion was recorded as 0 point. All scores were accumulated and the average score ( X¯±SD ) of each animal in each group was calculated.

[3] = system: oxytocin-induced dysmenorrhea murine model; experiment: Writhing response in oxytocin-induced dysmenorrhea murine model; type: in vivo, ICR mice; details: 0.1 g/kg oral; within 30 min after oxytocin; mean±SEM, n = 10; model group 32.6 ± 8.5
Protocol: Oxytocin-induced dysmenorrhea in mice was performed according to the method previously reported ([Sun et al., 2002]). […] Except for the normal group (subcutaneous injection of saline), the other groups were administrated by subcutaneous estradiol benzoate injection (0.05 ml/mouse on the first and 10th day, and 0.025 ml/mouse on the remaining days) for ten consecutive days. […] On the 10th day, oxytocin (0.2 ml/2 IU/mouse) was administered by peritoneal injection 1 h after the last administration. The number of animal writhing times was observed and recorded within 30 min after injection of oxytocin. […] The mice were sacrificed immediately. The uterus tissues were fixed with 10% formalin for further study.

[4] = read-out: IC50, inhibition of the activity of COX2 in vitro (converted)

IC50 [1, 4] | Compound | further results
380 nM and 383 nM | O=C(OC[C@H]1O[C@@H](OC(=O)c2cc(O)c(O)c(O)c2)[C@H](OC(=O)c2cc(O)c(O)c(O)c2)[C@@H](OC(=O)c2cc(O)c(O)c(O)c2)[C@@H]1OC(=O)c1cc(O)c(O)c(O)c1)c1cc(O)c(O)c(O)c1 [1,2,3,4,6-penta-O-galloyl-beta-D-glucopyranose] | 
 | O=C(O)c1cc(O)c(O)c(O)c1 [gallic acid] | IC50 ([1]; IC50, inhibition of the activity of COX2 in vitro): 1950 nM and 1940 nM
1110 nM | CCOC(=O)c1cc(O)c(O)c(O)c1 [ethyl gallate] | 
 | CC(C)Cc1ccc(C(C)C(=O)O)cc1 (stereo not drawn) [ibuprofen] | degree of uterine lesions (histopathology, H&E) [2]: reducing the degree of uterine lesions; number of writhing times [3]: 5.9 ± 2.1

Compound | IC50 [1, 4] | further results
C[C@@]12C[C@@]3(O)O[C@@H](O1)[C@]1(COC(=O)c4ccccc4)[C@H]3C[C@@]12O[C@@H]1O[C@H](COC(=O)c2cc(O)c(O)c(O)c2)[C@@H](O)[C@H](O)[C@H]1O [galloylpaeoniflorin] | 740 nM and 743 nM | 
